Key:
Experiment in all cases: Weeding effect in post-emergence stage (greenhouse pot test)
Format in all cases: in vivo
Capsella bursa-pastoris = conditions: 3 weeks after application, fresh weight control rate
Text: (§1) The activity level criteria for plant damage (i.e., growth control rate) are as follows:
(§2) Level 5: growth control rate is above 85%; • Level 4: growth control rate is greater than or equal to 60% and less than 85%; • Level 3: growth control rate is greater than or equal to 40% and less than 60%; • Level 2: growth control rate is greater than or equal to 20% and less than 40%; • Level 1: growth control rate is greater than or equal to 5% and less than 20%; • Level 0: growth control rate is less than 5%.
(§3) The above growth control rates are fresh weight control rates.
(§4) Experiment on weeding effect in post-emergence stage:
(§5) Monocotyledonous and dicotyledonous weed seeds (Descurainia sophia, Capsella bursa-pastoris, Abutilon theophrasti, Galium aparine, Stellaria media, Lithospermum arvense, Rorippa indica, Alopecurus aequalis, Alopecurus japonicus, Eleusine indica, Beckmannia syzigachne, Sclerochloa dura, Phleum paniculatum, Veronica didyma Tenore, Bromus japonicus, Aegilops tauschii, Phalaris arundinacea, Amaranthus retrojlexus, Chenopodiaceae, Commelina communis, Sonchus arvensis, convolvulus arvensis, Cirsium setosum, Solanum nigrum, Acalypha australis, Digitaria sanguinalis, Echinochloa crusgalli, Setaria viridis, Setaria glauca, Leptochloa chinensis, Monochoria vaginalis, Sagittaria trifolia, Scirpus juncoides, Cyperus rotundus, Cyperus iria, Cyperus difformis, Fimbristylis, Portulaca oleracea, Xanthium sibiricum, Pharbitis nil, Conyza japonica, etc.) and major crop seeds (wheat, corn, rice, soybean, cotton, oilseed rape, millet, sorghum, potato, sesame, ricinus, etc.) were placed in plastic pots filled with soil, then covered with 0.5-2 cm of soil, allowed to grow in a good greenhouse environment. After 2 weeks of sowing, the test plants were treated in the 2-3 leaf stage. The tested compounds of the present invention were respectively dissolved in acetone, then added with Tween 80 and 1.5 liter/ha of emulsifiable concentrate of methyl oleate as synergist, diluted with a certain amount of water to obtain a solution with a certain concentration, and sprayed with a spray tower onto the plants. After the application, the plants were cultured for 3 weeks in the greenhouse, and then the experimental results of the weeding were counted. The doses of the used compounds were 500, 250, 125, 60, 15, 7.5 g a.i./ha, and the averages were obtained by repeating for three times.

Conyza japonica = conditions: post-emergence, 3 weeks after application, fresh weight control rate
Text: as §1, §2, §3, §4, §5

Alopecurus japonicus = conditions: dose 15 g a.i./ha, 3 weeks after application, fresh weight control rate
Text: as §1, §2, §3, §4, §5

| SMILES | Activity level (growth control rate), Capsella bursa-pastoris (Capsella bursa-pastoris; dose 15 g a.i./ha) | Activity level (growth control rate), Capsella bursa-pastoris (Capsella bursa-pastoris; dose 125 g a.i./ha) | other results |
| --- | --- | --- | --- |
| COC(=O)C12CCCC1C(c1cc(-n3c(=O)cc(C(F)(F)F)n(C)c3=O)c(Cl)cc1Cl)=NO2 (stereo not shown) [Compound 440] | 5 (Level 5: growth control rate is above 85%) | – | – |
| COC(=O)C12CCCCCC1C(c1cc(-n3c(=O)cc(C(F)(F)F)n(C)c3=O)c(F)cc1Cl)=NO2 (stereo not shown) [Compound 435] | 5 (Level 5: growth control rate is above 85%) | – | – |
| CCSC(=O)C12CCCC1C(c1cc(-n3c(=O)cc(C(F)(F)F)n(C)c3=O)c(F)cc1Cl)=NO2 (stereo not shown) [Compound 334] | 5 (Level 5: growth control rate is above 85%) | – | Activity level (growth control rate), Conyza japonica (Conyza japonica; dose 15 g a.i./ha): 4 (Level 4: growth control rate is greater than or equal to 60% and less than 85%) |
| CCOC(=O)C12ON=C(c3cc(-n4c(=O)cc(C(F)(F)F)n(C)c4=O)c(F)cc3Cl)C1CCC2F (stereo not shown) [Compound 472] | 5 (Level 5: growth control rate is above 85%) | – | Activity level (growth control rate), Conyza japonica (Conyza japonica; dose 15 g a.i./ha): 4 (Level 4: growth control rate is greater than or equal to 60% and less than 85%) |
| COC(=O)C12CCCC1C(c1cc(-c3c(Cl)c(C(F)(F)F)n(C)c3Cl)c(F)cc1Cl)=NO2 (stereo not shown) [Compound 588] | – | 5 (Level 5: growth control rate is above 85%) | – |
| COC(=O)C12CC(C)CC1C(c1cc(-n3c(=O)cc(C(F)(F)F)n(C)c3=O)c(F)cc1Cl)=NO2 (stereo not shown) [Compound 456] | 5 (Level 5: growth control rate is above 85%) | – | Activity level (growth control rate), Conyza japonica (Conyza japonica; dose 15 g a.i./ha): 4 (Level 4: growth control rate is greater than or equal to 60% and less than 85%) |
| COC(=O)C12CCCC1C(c1cc(-c3cc(C(F)(F)F)nn3C)c(F)cc1Cl)=NO2 (stereo not shown) [Compound 589] | – | 5 (Level 5: growth control rate is above 85%) | – |
| Cn1c(C(F)(F)F)cc(=O)n(-c2cc(C3=NOC4(C(=O)OCc5ccccc5F)CCCC34)c(Cl)cc2F)c1=O (stereo not shown) [Compound 264] | 5 (Level 5: growth control rate is above 85%) | – | Activity level (growth control rate), Conyza japonica (Conyza japonica; dose 15 g a.i./ha): 4 (Level 4: growth control rate is greater than or equal to 60% and less than 85%) |
| COC(=O)C12CCCC1C(c1cc(-c3nnc(C(F)(F)F)cc3O)c(F)cc1Cl)=NO2 (stereo not shown) [Compound 577] | – | 5 (Level 5: growth control rate is above 85%) | Activity level (growth control rate), Conyza japonica (Conyza japonica; dose 125 g a.i./ha): 5 (Level 5: growth control rate is above 85%) |
| COC(=O)C12CCCC1(O)C(c1cc(-n3c(=O)cc(C(F)(F)F)n(C)c3=O)c(F)cc1Cl)=NO2 (stereo not shown) [Compound 351] | – | – | Activity level (growth control rate), Conyza japonica (Conyza japonica; dose 15 g a.i./ha): 4 (Level 4: growth control rate is greater than or equal to 60% and less than 85%) |
| COC(=O)C12CCC(O)C1C(c1cc(-n3c(=O)cc(C(F)(F)F)n(C)c3=O)c(F)cc1Cl)=NO2 (stereo not shown) [Compound 444] | 5 (Level 5: growth control rate is above 85%) | – | Activity level (growth control rate), Alopecurus japonicus (Alopecurus japonicus): 4 (Level 4: growth control rate is greater than or equal to 60% and less than 85%) |
| COC(=O)C12CSCC1C(c1cc(-n3c(=O)cc(C(F)(F)F)n(C)c3=O)c(F)cc1Cl)=NO2 (stereo not shown) [Compound 374] | – | 5 (Level 5: growth control rate is above 85%) | Activity level (growth control rate), Conyza japonica (Conyza japonica; dose 125 g a.i./ha): 5 (Level 5: growth control rate is above 85%) |
| COC(=O)C12CCCC1C(c1cc(-n3c(=O)cc(C(F)(F)F)n(C)c3=S)c(F)cc1Cl)=NO2 (stereo not shown) [Compound 497] | 5 (Level 5: growth control rate is above 85%) | – | – |
| CCCN1C(=O)C(=O)N(c2cc(C3=NOC4(C(=O)OC)CCCC34)c(Cl)cc2F)C1=S (stereo not shown) [Compound 552] | – | 5 (Level 5: growth control rate is above 85%) | – |
| COC(=O)C12CCCC1C(c1cc(-n3c(=O)n(C)c(=S)n(C)c3=S)c(F)cc1Cl)=NO2 (stereo not shown) [Compound 395] | – | 5 (Level 5: growth control rate is above 85%) | – |
| COC(=O)C12CCCC1C(c1cc(-c3ncc(S(C)(=O)=O)cc3Cl)c(F)cc1Cl)=NO2 (stereo not shown) [Compound 584] | – | 5 (Level 5: growth control rate is above 85%) | Activity level (growth control rate), Conyza japonica (Conyza japonica; dose 125 g a.i./ha): 5 (Level 5: growth control rate is above 85%) |
| COC(=O)C12CCCC1C(c1cc(-n3nc4n(c3=O)CCCC4)c(F)cc1Cl)=NO2 (stereo not shown) [Compound 561] | – | 5 (Level 5: growth control rate is above 85%) | – |

| SMILES | Activity level (growth control rate), Capsella bursa-pastoris (Capsella bursa-pastoris; dose 15 g a.i./ha) | Activity level (growth control rate), Capsella bursa-pastoris (Capsella bursa-pastoris; dose 125 g a.i./ha) | other results |
| --- | --- | --- | --- |
| COC(=O)C12CCCCC1C(c1cc(-n3c(=O)cc(C(F)(F)F)n(C)c3=O)c(F)cc1Cl)=NO2 (stereo not shown) [Compound 370] | – | 5 (Level 5: growth control rate is above 85%) | – |
| COC(=O)C12CCCC1C(c1cc(-n3c(=O)cc(C(F)(F)F)n(C)c3=O)c(F)cc1C(F)(F)F)=NO2 (stereo not shown) [Compound 211] | 5 (Level 5: growth control rate is above 85%) | – | Activity level (growth control rate), Conyza japonica (Conyza japonica; dose 15 g a.i./ha): 5 (Level 5: growth control rate is above 85%) |
| COC(=O)C12CCCC1C(c1cc(NC(=O)C3=C(C(=O)O)CCCC3)c(F)cc1Cl)=NO2 (stereo not shown) [Compound 597] | 5 (Level 5: growth control rate is above 85%) | – | Activity level (growth control rate), Conyza japonica (Conyza japonica; dose 15 g a.i./ha): 4 (Level 4: growth control rate is greater than or equal to 60% and less than 85%) |
| COC(=O)C12CCCC1C(c1cc(/N=c3\scc(C(F)(F)F)n3C)c(F)cc1Cl)=NO2 (stereo not shown) [Compound 574] | 5 (Level 5: growth control rate is above 85%) | – | Activity level (growth control rate), Conyza japonica (Conyza japonica; dose 15 g a.i./ha): 5 (Level 5: growth control rate is above 85%) |
| COC(=O)C12CCCC1C(c1cc(-n3c(=O)cc(C(F)(F)F)n(C)c3=O)c(F)cc1C#N)=NO2 (stereo not shown) [Compound 212] | 5 (Level 5: growth control rate is above 85%) | – | Activity level (growth control rate), Conyza japonica (Conyza japonica; dose 15 g a.i./ha): 5 (Level 5: growth control rate is above 85%) |
| COC(=O)C12CCCC1C(c1cc(N3C(=O)CC(C)CC3=O)c(F)cc1Cl)=NO2 (stereo not shown) [Compound 547] | – | 5 (Level 5: growth control rate is above 85%) | – |
| O=C1C2CC=CCC2C(=O)N1c1cc(C2=NOC3(C(=O)O)CCCC23)c(Cl)cc1F (stereo not shown) [Compound 546] | – | 5 (Level 5: growth control rate is above 85%) | – |
| COC(=O)C12CCCC1C(c1cc(N3C(=O)C4CCCCC4C3=O)c(F)cc1Cl)=NO2 (stereo not shown) [Compound 545] | – | 5 (Level 5: growth control rate is above 85%) | – |
| COC(=O)C12CCCC1C(c1cc(N3C(=O)CC(=C(C)C)C3=O)c(F)cc1Cl)=NO2 (stereo not shown) [Compound 544] | – | 5 (Level 5: growth control rate is above 85%) | – |
| COC(=O)C12CCCC1C(c1cc(-c3cc(C(F)(F)F)n(C)c3)c(F)cc1Cl)=NO2 (stereo not shown) [Compound 587] | – | 5 (Level 5: growth control rate is above 85%) | – |
| COC(=O)C12CCCC1C(c1cc(-c3c(Br)c(C(F)(F)F)nn3C)c(F)cc1Cl)=NO2 (stereo not shown) [Compound 590] | – | 5 (Level 5: growth control rate is above 85%) | – |
| CCOC(=O)C12ON=C(c3cc(-n4c(=O)cc(C(F)(F)F)n(C)c4=O)c(F)cc3Cl)C1CCC2=NO (stereo not shown) [Compound 491] | 5 (Level 5: growth control rate is above 85%) | – | – |
| CCCNC(=O)C12CCCC1C(c1cc(N3C(=O)C(=O)N(CCC)C3=S)c(F)cc1Cl)=NO2 (stereo not shown) [Compound 553] | 5 (Level 5: growth control rate is above 85%) | – | – |
| COC(=O)C12CCCC1C(c1cc(-n3c(=O)c4ccccc4n(C)c3=O)c(F)cc1Cl)=NO2 (stereo not shown) [Compound 551] | – | 5 (Level 5: growth control rate is above 85%) | – |
| COC(=O)C12CCCC1C(c1cc(-c3ncc(C(F)(F)F)c(C)c3Cl)c(F)cc1Cl)=NO2 (stereo not shown) [Compound 586] | – | 5 (Level 5: growth control rate is above 85%) | Activity level (growth control rate), Conyza japonica (Conyza japonica; dose 125 g a.i./ha): 5 (Level 5: growth control rate is above 85%) |
| COC(=O)C12CCCC1C(c1cc(-c3nn(C)c(C(F)(F)F)cc3=O)c(F)cc1Cl)=NO2 (stereo not shown) [Compound 579] | 5 (Level 5: growth control rate is above 85%) | – | Activity level (growth control rate), Alopecurus japonicus (Alopecurus japonicus): 4 (Level 4: growth control rate is greater than or equal to 60% and less than 85%) |
| COC(=O)C1CC2C(c3cc(-n4c(=O)cc(C(F)(F)F)n(C)c4=O)c(F)cc3Cl)=NOC2(C(=O)OC)C1 (stereo not shown) [Compound 464] | 5 (Level 5: growth control rate is above 85%) | – | Activity level (growth control rate), Alopecurus japonicus (Alopecurus japonicus): 5 (Level 5: growth control rate is above 85%) |

Reference: patent US12396458B2, “Fused ring substituted aromatic compound and preparation method therefor, herbicidal composition, and use thereof” (Qingdao Kingagroot Chemical Compound Co., Ltd., priority 2020, dated 2025)
